Reference: patent publication US20050282819A1, “Heterocyclic substituted indane derivatives and related compounds for the treatment of schizophrenia” (priority 2003, published 2005)

Molecular target: T1, dopamine D2 receptor (Homo sapiens, UniProt P14416)
T1 construct: expressed in transfected cells; host or cells: CHO cells (CHO-hD2L), membrane preparation
Test: Dopamine D2 receptor binding ([3H]spiperone, CHO-hD2L membranes)
Text: (§1) The ability of the compounds of this invention to bind to the dopamine D2 and serotonin 2A (5HT2A) receptors can be determined using conventional radioligand receptor binding assays. All receptors can be heterologously expressed in cell lines and experiments conducted in membrane preparations from the cell lines using procedures outlined below. IC50 concentrations can be determined by nonlinear regression of concentration-dependent reduction in specific binding. The Cheng-Prussoff equation can be used to convert the IC50 to Ki concentrations.
Dopamine D2 Receptor Binding:
[^3H]Spiperone binding to a membrane preparation from CHO-hD2L cells is carried out in 250 μl of 50 mM Tris-HCl buffer containing 100 mM NaCl, 1 mM MgCl2 and 1% DMSO at pH 7.4. Duplicate samples containing (in order of addition) the test compounds, 0.4 nM [^3H]spiperone and approximately 12 μg protein are incubated for 120 minutes at room temperature. Bound radioligand is separated by rapid filtration under reduced pressure through Whatman GF/B glass fiber filters previously treated with 0.3% polyethyleneimine. Radioactivity retained on the filter is determined by liquid scintillation spectrophotometry.
The title compounds of Examples 1-120 were tested using the above assay, in which specific binding determined in the presence of 1 mM haloperidol was 95%.

T1 sequence (P14416 whole entry): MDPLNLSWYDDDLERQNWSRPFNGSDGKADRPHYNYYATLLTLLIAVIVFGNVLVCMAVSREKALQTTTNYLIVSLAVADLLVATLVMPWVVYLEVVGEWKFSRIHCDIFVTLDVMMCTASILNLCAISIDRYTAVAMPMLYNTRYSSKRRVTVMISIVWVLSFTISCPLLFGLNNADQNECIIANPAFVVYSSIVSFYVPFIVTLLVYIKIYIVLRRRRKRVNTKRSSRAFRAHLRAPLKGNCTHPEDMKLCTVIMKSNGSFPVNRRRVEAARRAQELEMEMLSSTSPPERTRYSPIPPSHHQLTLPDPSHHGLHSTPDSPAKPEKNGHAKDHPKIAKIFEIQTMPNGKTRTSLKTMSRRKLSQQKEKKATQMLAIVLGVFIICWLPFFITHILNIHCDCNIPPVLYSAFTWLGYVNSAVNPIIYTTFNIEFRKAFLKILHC

Row | Ki | Compound
1 | 9 nM | CC(=O)N[C@H]1Cc2ccc(CCN3CCN(c4nsc5ccccc45)CC3)cc2C1 [Example 60, (S)(+)-N-{5-[2-(4-BENZO[D]ISOTHIAZOL-3-YL-PIPERAZIN-1-YL)-ETHYL]-INDAN-2-YL}-ACETAMIDE]
2 | 3 nM | O=C(NC1CCc2ccc(CCN3CCN(c4nsc5ccccc45)CC3)cc21)c1ccno1 (stereo not shown) [Example 58, ISOXAZOLE-5-CARBOXYLIC ACID {6-[2-(4-BENZO[D]ISOTHIAZOL-3-YL-PIPERAZIN-1-YL)-ETHYL]-INDAN-1-YL}-AMIDE]

Row | Compound | Ki
3 | O=C(Cc1ccoc1)NC1CCc2ccc(CCN3CCN(c4nsc5ccccc45)CC3)cc21 (stereo not shown) [Example 56, N-{6-[2-(4-BENZO[D]ISOTHIAZOL-3-YL-PIPERAZIN-1-YL)-ETHYL]-INDAN-1-YL}-2-FURAN-3-YL-ACETAMIDE] | 5 nM

Molecular target: T2, serotonin 2A (5HT2A) receptor (Homo sapiens, UniProt P28223)
T2 construct: expressed in transfected cells; host or cells: Swiss-h5HT2A cells, membranes
T2 sequence (P28223 whole entry): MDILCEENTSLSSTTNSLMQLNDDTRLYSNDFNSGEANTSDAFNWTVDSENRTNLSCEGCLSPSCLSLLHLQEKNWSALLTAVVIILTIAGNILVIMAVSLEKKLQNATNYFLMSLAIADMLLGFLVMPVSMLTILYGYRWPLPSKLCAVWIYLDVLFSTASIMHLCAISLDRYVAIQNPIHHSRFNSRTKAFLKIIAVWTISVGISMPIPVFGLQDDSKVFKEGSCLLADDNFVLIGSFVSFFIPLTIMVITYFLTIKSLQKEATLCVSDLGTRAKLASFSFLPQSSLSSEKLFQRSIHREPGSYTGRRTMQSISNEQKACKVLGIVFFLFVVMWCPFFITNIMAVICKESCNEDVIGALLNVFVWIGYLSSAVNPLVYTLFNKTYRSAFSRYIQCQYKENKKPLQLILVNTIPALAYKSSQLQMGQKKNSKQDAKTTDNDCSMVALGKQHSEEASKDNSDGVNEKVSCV
Test: Serotonin 2A binding ([3H]ketanserin, Swiss-h5HT2A cell membranes)
Text: as §1
[^3H]Ketanserin binding to Swiss-h5HT2A cell membranes can be carried out in 250 μl of 50 mM Tris-HCl buffer pH 7.4. Duplicate samples containing (in order of addition) test compounds, 1.0 nM [^3H]ketanserin, and approximately 75 μg protein are incubated for 120 minutes at room temperature. Bound radioligand is separated by rapid filtration under reduced pressure through Whatman GF/B glass fiber filters previously treated with 0.3% polyethyleneimine. Radioactivity retained on the filter is determined by liquid scintillation spectrophotometry.

Row | Ki | Compound
4 | 0.09 nM | CC(=O)N[C@H]1Cc2ccc(CCN3CCN(c4nsc5ccccc45)CC3)cc2C1 [Example 60, (S)(+)-N-{5-[2-(4-BENZO[D]ISOTHIAZOL-3-YL-PIPERAZIN-1-YL)-ETHYL]-INDAN-2-YL}-ACETAMIDE]
5 | 0.03 nM | O=C(NC1CCc2ccc(CCN3CCN(c4nsc5ccccc45)CC3)cc21)c1ccno1 (stereo not shown) [Example 58, ISOXAZOLE-5-CARBOXYLIC ACID {6-[2-(4-BENZO[D]ISOTHIAZOL-3-YL-PIPERAZIN-1-YL)-ETHYL]-INDAN-1-YL}-AMIDE]

Row | Compound | Ki
6 | O=C(Cc1ccoc1)NC1CCc2ccc(CCN3CCN(c4nsc5ccccc45)CC3)cc21 (stereo not shown) [Example 56, N-{6-[2-(4-BENZO[D]ISOTHIAZOL-3-YL-PIPERAZIN-1-YL)-ETHYL]-INDAN-1-YL}-2-FURAN-3-YL-ACETAMIDE] | 0.55 nM

Test system: not given
Test: not given

Row | Compound | melting point
7 | CNC(CN1CCN(c2nsc3ccccc23)CC1)c1ccc2c(c1)C(C)(C)C(O)C2(C)C (stereo not shown) [Example 85, 5-[2-(4-BENZO[D]ISOTHIAZOL-3-YL-PIPERAZIN-1-YL)-1-METHYLAMINO-ETHYL]-1,1,3,3-TETRAMETHYL-INDAN-2-OL] | 96 to 101 °C
8 | CC(=O)NC1Cc2ccc(CCN3CCN(c4nsc5ccccc45)CC3)cc2C1(C)C (racemic) | 62 to 72 °C
9 | CCOC(CN1CCN(c2noc3ccccc23)CC1)c1ccc2c(c1)C(C)(C)C(=O)C2(C)C.CS(=O)(=O)O (stereo not shown) | 219 to 222 °C
10 | CC1(C)c2ccc(C(O)CN3CCN(c4n[nH]c5ccccc45)CC3)cc2C(C)(C)C1O (stereo not shown) [Example 86, 5-{1-HYDROXY-2-[4-(1H-INDAZOL-3-YL)-PIPERAZIN-1-YL]-ETHYL}-1,1,3,3-TETRAMETHYL-INDAN-2-OL] | 104 to 110 °C
11 | CC(=O)NC1Cc2cc(CCN3CCN(c4nsc5ccccc45)CC3)ccc2C1(C)C (racemic) [Example 115, N-{5-[2-(4-BENZO[D]ISOTHIAZOL-3-YL-PIPERAZIN-1-YL)-ETHYL]-1,1-DIMETHYL-INDAN-2-YL}-ACETAMIDE] | 58 to 68 °C
12 | CC1(C)c2ccc(C(O)CN3CCN(c4nsc5ccccc45)CC3)cc2C(C)(C)C1O (stereo not shown) [Example 80, 5-[2-(4-BENZO[D]ISOTHIAZOL-3-YL-PIPERAZIN-1-YL)-1-HYDROXY-ETHYL]-1,1,3,3-TETRAMETHYL-INDAN-2-OL] | 88 to 97 °C
13 | CC1(C)c2ccc(C(F)CN3CCN(c4nsc5ccccc45)CC3)cc2C(C)(C)C1O (stereo not shown) [Example 79, 5-[2-(4-BENZO[D]ISOTHIAZOL-3-YL-PIPERAZIN-1-YL)-1-FLUORO-ETHYL]-1,1,3,3-TETRAMETHYL-INDAN-2-OL] | 49 to 54 °C
14 | CC(=O)NC1C(C)(C)c2ccc(CCN3CCN(c4noc5ccccc45)CC3)cc2C1(C)C.CS(=O)(=O)O (stereo not shown) | 197 to 205 °C

Now from value to compound:

Row | melting point | Compound
15 | 60 to 70 °C | CCN(C(C)=O)C1Cc2cc(CCN3CCN(c4nsc5ccccc45)CC3)ccc2C1(C)C.CS(=O)(=O)O (stereo not shown)
16 | 75 to 80 °C | CC(=O)NC1C(C)(C)c2ccc(CCN3CCN(c4nsc5ccccc45)CC3)cc2C1(C)C (stereo not shown) [Example 109, N-{5-[2-(4-BENZO[D]ISOTHIAZOL-3-YL-PIPERAZIN-1-YL)-ETHYL]-1,1,3,3-TETRAMETHYL-INDAN-2-YL}-ACETAMIDE]
17 | 64 to 73 °C | CC1(C)C(=O)C(C)(C)c2cc(C(F)CN3CCN(c4nsc5ccccc45)CC3)ccc21 (stereo not shown) [Example 78, 5-[2-(4-BENZO[D]ISOTHIAZOL-3-YL-PIPERAZIN-1-YL)-1-FLUORO-ETHYL]-1,1,3,3-TETRAMETHYL-INDAN-2-ONE]
18 | 122 to 126 °C | CC1(C)C(=O)C(C)(C)c2cc(CCN3CCN(c4nsc5ccccc45)CC3)ccc21 [Example 82, 5-[2-(4-BENZO[D]ISOTHIAZOL-3-YL-PIPERAZIN-1-YL)-ETHYL]-1,1,3,3-TETRAMETHYL-INDAN-2-ONE]
19 | 200 to 203 °C (dec.) | CC1(C)C(=O)C(C)(C)c2cc(CCCN3CCN(c4noc5ccccc45)CC3)ccc21.CS(=O)(=O)O
20 | 248 to 250 °C | CC(=O)N(C)C1C(C)(C)c2ccc(CCN3CCN(c4nsc5ccccc45)CC3)cc2C1(C)C.CS(=O)(=O)O (stereo not shown)
21 | 115 to 125 °C (dec.) | CCNC1Cc2cc(CCN3CCN(c4nsc5ccccc45)CC3)ccc2C1(C)C.CS(=O)(=O)O (stereo not shown)
22 | 259 to 261 °C | CC1(C)C(=O)C(C)(C)c2cc(CCN3CCN(c4noc5ccccc45)CC3)ccc21.CS(=O)(=O)O
23 | 62 to 72 °C | CCN(C(C)=O)C1Cc2ccc(CCN3CCN(c4nsc5ccccc45)CC3)cc2C1(C)C.CS(=O)(=O)O (stereo not shown)
24 | 144 to 147 °C | CC1(C)C(=O)C(C)(C)c2cc(CCCN3CCN(c4nsc5ccccc45)CC3)ccc21.CS(=O)(=O)O
25 | 47 to 49 °C | CC1(C)c2ccc(CCN3CCN(c4nsc5ccccc45)CC3)cc2C(C)(C)C1O (stereo not shown) [Example 83, 5-[2-(4-BENZO[D]ISOTHIAZOL-3-YL-PIPERAZIN-1-YL)-ETHYL]-1,1,3,3-TETRAMETHYL-INDAN-2-OL]
26 | 189 to 191 °C | CC1(C)C(=O)C(C)(C)c2cc(C(O)CN3CCN(c4nsc5ccccc45)CC3)ccc21 (stereo not shown) [Example 77, 5-[2-(4-BENZO[D]ISOTHIAZOL-3-YL-PIPERAZIN-1-YL)-1-HYDROXYETHYL]-1,1,3,3-TETRAMETHYL-INDAN-2-ONE]
27 | 200 to 203 °C (dec.) | CNC1C(C)(C)c2ccc(CCN3CCN(c4nsc5ccccc45)CC3)cc2C1(C)C.CS(=O)(=O)O (stereo not shown)
28 | 125 to 135 °C | CCNC1Cc2ccc(CCN3CCN(c4nsc5ccccc45)CC3)cc2C1(C)C.CS(=O)(=O)O (stereo not shown)
